Measured values reported in patent US20110313021A1, “Method to rapidly identify critical p53 target genes that can be utilized for therapeutic intervention” (priority 2010, published 2011).

Target: T1, GST-tagged recombinant MCAK protein (amino acids 182 to 646 of the human MCAK protein) (Homo sapiens, UniProt Q99661)
T1 construct: corresponding to amino acids 182 to 646 of the human MCAK protein; GST; purchased Cytoskeleton, Denver Colo
Experiment: MCAK ATPase assay
Type: biochemical
Details: dose-response, read-out: 50% inhibitory concentration (IC50) for MCAK activity
Source text: Based on the instant data supporting a role for MCAK in p53 mediated cell death, it can be reasoned that MCAK will also fill a therapeutic niche for rational drug design targeting the mitotic checkpoint. Importantly, cancer cells with abrogated p53 contain high levels of MCAK, thereby providing a genetic determinant for therapeutic use of MCAK inhibitors. Accordingly, the inventor sought to identify and characterize inhibitors of MCAK function. MCAK utilizes the energy of Adenosine triphosphate (ATP) hydrolysis to carry out its MT depolymerization function. The inventor exploited this characteristic to utilize and optimize a commercially available in vitro assay that measures MCAK ATPase activity (Cytoskeleton, Denver Colo.). The components of the assay are: recombinant MCAK protein, ATP, pre-formed MTs, detection reagent for inorganic phosphate (Pi), and the appropriate buffers for the reaction. We utilized a glutathione S-transferase (GST)-tagged recombinant MCAK protein corresponding to amino acids 182 to 646 of the human MCAK protein, a region of the protein that contains the kinesin motor domain of MCAK. The ATPase activity of MCAK directly correlates to the presence of Pi in the reaction mixture.
The inventor used the MCAK ATPase to carry out a high-throughput screen (HTS) of a library of synthetic small molecules and various natural products. […]

T1 sequence (Q99661 182-646): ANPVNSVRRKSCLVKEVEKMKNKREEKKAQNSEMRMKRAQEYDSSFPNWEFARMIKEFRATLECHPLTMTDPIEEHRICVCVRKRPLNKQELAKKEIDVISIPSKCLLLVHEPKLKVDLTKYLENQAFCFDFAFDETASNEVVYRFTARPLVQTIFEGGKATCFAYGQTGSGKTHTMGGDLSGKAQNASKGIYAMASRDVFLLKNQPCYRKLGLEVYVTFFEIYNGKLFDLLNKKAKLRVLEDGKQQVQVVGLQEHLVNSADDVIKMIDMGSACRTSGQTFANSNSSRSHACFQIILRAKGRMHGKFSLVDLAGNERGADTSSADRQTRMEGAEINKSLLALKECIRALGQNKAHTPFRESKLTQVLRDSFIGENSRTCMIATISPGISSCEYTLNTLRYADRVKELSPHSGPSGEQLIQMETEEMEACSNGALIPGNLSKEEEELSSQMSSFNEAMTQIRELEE

## Cc1cc2c(C(C)C)c(O)c(O)c(C=O)c2c(O)c1-c1c(C)cc2c(C(C)C)c(O)c(O)c(C=O)c2c1O [gossypol]
  IC50: ~11 µM
